Assay results as given in patent US20080166432A1, “Biotherapeutics for Mitigation of Health Disorders from Terminalia Arjuna” (Avestha Gengraine Technologies Pvt. Ltd., priority 2003, published 2008).

Legend:
[1] = DPPH scavenging effect (antioxidant assay); type: physicochemical; details: T. arjuna extracts from different plant parts
Source text: This method is based on the reduction of DPPH, a stable free radical. Due to the odd electron of DPPH, it gives a strong absorption maximum at 517 nm by visible spectroscopy (purple color). As the odd electron of the radical becomes paired off in the presence of hydrogen donor, that is, a free-radical scavenging antioxidant, the absorption strength is decreased, and the resulting de-coloration is stoichiometric with respect to the number of electrons captured. This reaction has widely been used to evaluate the anti-oxidative activity of food and plant extracts.
Reactions were performed in 1.25 ml of methanol containing 0.5 mM freshly made DPPH and various amounts of the extract. Reaction mixtures were incubated at 37° C. for 30 min, and the absorbance at 517 nm was measured. This assay was done in triplicate.
Oxidant (DPPH) inhibitory activity (%)={(A517Control−A517 Sample)/A517Control}×100
IC50 is defined as the amount of extract required for 50% inhibition in the levels of free radical. Table 25 gives the IC50 values of Terminalia arjuna bark and fruit extracts.

endothelial cells = details: ascorbate pretreatment; measured as citrulline formation and cGMP accumulation; cited from earlier work
[2] = system: Bacillus cereus ATCC-11778; test: Antibacterial assay, agar streak method; type: cell-based; parameters: key: +++: abundant growth; ++: growth; +: less growth; −: no growth; details: B. cereus
Source text: (§1) Testing of anti-microbial potential was done against following bacterial strains (Gram negative: Escherichia coli ATCC-10536, Pseudomonas aeruginosa ATCC-9027, Klebsiella pneumoniea ATCC-10031, Bordetella bronchiseptica ATCC-4617; Gram Positive: Staphylococcus aureus ATCC-29737, Streptococcus fecalis ATCC-8043, Micrococcus luteus ATCC-9341, Bacillus subtilis ATCC-6633, Bacillus cereus ATCC-11778, Bacillus pumilus ATCC-14884, Staphylococcus epidermidis ATCC-6358) were selected from the microorganisms given in United states Pharmacopoeia (2000), British Pharmacopoeia (1993) and Indian Pharmacopoeia (1996) for anti-microbial assays.
(§2) A stock of 100 mg/ml of Ethyl acetate, Acetone, Ethanol, Methanol and Water successive extract from Terminalia arjuna bark and direct ethanol and successive water extracts from Terminalia arjuna fruit was dissolved in DMSO. To determine the antibacterial potential extracts at a concentration of 5 mg/ml and 1 mg/ml were added to 30 ml of luke warm Luria Bertaini agar medium. After the medium was solidified, overnight grown 11 bacterial strains mentioned were taken in loop and streaked on the medium. The plates were incubated at 37° C. for 24 hrs after which the bacterial growth was monitored. Suitable controls were maintained with the extracts and the microorganisms. Luria Bertaini agar medium with and without 1.5% DMSO were used as negative control set, Ciprofloxacin (2 μg/ml) served as positive control.

[3] = system: Bacillus pumilus ATCC-14884; test: Antibacterial assay, agar streak method; type: cell-based; parameters: key: +++: abundant growth; ++: growth; +: less growth; −: no growth; details: B. pumilus
Source text: as §1, §2

[4] = system: Bacillus subtilis ATCC-6633; test: Antibacterial assay, agar streak method; type: cell-based; parameters: key: +++: abundant growth; ++: growth; +: less growth; −: no growth; details: B. subtilis; LB + Ciprofloxacin 2 μg/ml
Source text: as §1, §2

[5] = system: Bordetella bronchiseptica ATCC-4617; test: Antibacterial assay, agar streak method; type: cell-based; parameters: key: +++: abundant growth; ++: growth; +: less growth; −: no growth; details: B. bronchiseptica
Source text: as §1, §2

[6] = system: Escherichia coli ATCC-10536; test: Antibacterial assay, agar streak method; type: cell-based; parameters: key: +++: abundant growth; ++: growth; +: less growth; −: no growth; details: E. coli
Source text: as §1, §2

[7] = system: Klebsiella pneumoniea ATCC-10031; test: Antibacterial assay, agar streak method; type: cell-based; parameters: key: +++: abundant growth; ++: growth; +: less growth; −: no growth; details: K. pneumoniea
Source text: as §1, §2

[8] = system: Micrococcus luteus ATCC-9341; test: Antibacterial assay, agar streak method; type: cell-based; parameters: key: +++: abundant growth; ++: growth; +: less growth; −: no growth; details: M. luteus
Source text: as §1, §2

[9] = system: Pseudomonas aeruginosa ATCC-9027; test: Antibacterial assay, agar streak method; type: cell-based; parameters: key: +++: abundant growth; ++: growth; +: less growth; −: no growth; details: P. aeruginosa
Source text: as §1, §2

[10] = system: Staphylococcus aureus ATCC-29737; test: Antibacterial assay, agar streak method; type: cell-based; parameters: key: +++: abundant growth; ++: growth; +: less growth; −: no growth; details: S. aureus
Source text: as §1, §2

[11] = system: Staphylococcus epidermidis ATCC-6358; test: Antibacterial assay, agar streak method; type: cell-based; parameters: key: +++: abundant growth; ++: growth; +: less growth; −: no growth; details: S. epidermidis
Source text: as §1, §2

[12] = system: Streptococcus fecalis ATCC-8043; test: Antibacterial assay, agar streak method; type: cell-based; parameters: key: +++: abundant growth; ++: growth; +: less growth; −: no growth; details: S. fecalis
Source text: as §1, §2

[13] = LB + Ciprofloxacin 2 μg/ml (Table 27)

Q: With `O=C1O[C@H]([C@@H](O)CO)C(O)=C1O` [Ascorbate, ascorbic acid] as the compound, how does the “IC50 values of antioxidation potential” value [1] read?
A: Its value is 26 mg/L.

Q: And the “increase of the cellular production of NO” value (endothelial cells)?
A: Its value is 3 fold.

Q: What does the source list for `O=C(O)c1cn(C2CC2)c2cc(N3CCNCC3)c(F)cc2c1=O` [Ciprofloxacin]?
A: bacterial growth ([2]; LB + Ciprofloxacin 2 μg/ml): −; bacterial growth [2, 13]: −; bacterial growth ([3]; LB + Ciprofloxacin 2 μg/ml): −; bacterial growth [3, 13]: −; bacterial growth [4]: −; bacterial growth ([5]; LB + Ciprofloxacin 2 μg/ml): −; bacterial growth [5, 13]: −; bacterial growth ([6]; LB + Ciprofloxacin 2 μg/ml): −; bacterial growth [6, 13]: −; bacterial growth ([7]; LB + Ciprofloxacin 2 μg/ml): −; bacterial growth [7, 13]: −; bacterial growth ([8]; LB + Ciprofloxacin 2 μg/ml): −; bacterial growth [8, 13]: −; bacterial growth ([9]; LB + Ciprofloxacin 2 μg/ml): −; bacterial growth [9, 13]: −; bacterial growth ([10]; LB + Ciprofloxacin 2 μg/ml): −; bacterial growth [10, 13]: −; bacterial growth ([11]; LB + Ciprofloxacin 2 μg/ml): −; bacterial growth [11, 13]: −; bacterial growth ([12]; LB + Ciprofloxacin 2 μg/ml): −; bacterial growth [12, 13]: −
